These molecules were tested on PC-12 (assay: Neuroprotective activity against CoCl2-induced neuronal injury in rat PC12 cells).
Type: functional, cell-based

| SMILES | EC50 |
| --- | --- |
| CC1(C)[C@@H](O)CC[C@]2(C)[C@H]3C(=O)C=C4[C@@H]5C[C@@](C)(C(=O)O[C@@H]6O[C@H](CO)[C@@H](O)[C@H](O)[C@H]6O)CC[C@]5(C)CC[C@@]4(C)[C@]3(C)[C@@H](O)C[C@@H]12 | > 40 µM |
| CC1(C)[C@@H](O)CC[C@]2(C)[C@H]3CC=C4[C@@H]5C[C@](C)(C(=O)O)[C@@H](O)C[C@]5(C(=O)O)CC[C@@]4(C)[C@]3(C)[C@@H](O)C[C@@H]12 | 0.48 µM |
| CC1(C)[C@@H](O)CC[C@]2(C)[C@H]3C(=O)C=C4[C@@H]5C[C@@](C)(C(=O)O[C@@H]6O[C@H](CO)[C@@H](O)[C@H](O)[C@H]6O)CC[C@]5(C)CC[C@@]4(C)[C@]3(C)CC[C@@H]12 | > 40 µM |
| CC1(C)C[C@H]2C3=CC[C@@H]4[C@@]5(C)CC[C@H](O[C@H]6O[C@@H](CO)[C@H](O)[C@@H](O)[C@@H]6O)C(C)(C)[C@@H]5C[C@H](O)[C@@]4(C)[C@]3(C)CC[C@@]2(C(=O)O)C[C@@H]1O | > 40 µM |
| CC1(C)[C@@H](O)CC[C@]2(C)[C@H]3C(=O)C=C4[C@@H]5C[C@@](C)(C(=O)O)CC[C@]5(C)CC[C@@]4(C)[C@]3(C)[C@@H](O)C[C@@H]12 | 1.76 µM |
| CC1(C)[C@@H](O)CC[C@]2(C)[C@H]3CC=C4[C@@H]5C[C@](C)(CO)[C@@H](O)C[C@]5(C(=O)O)CC[C@@]4(C)[C@]3(C)[C@@H](O)C[C@@H]12 | 7.74 µM |
| CC1(C)C[C@H]2C3=CC[C@@H]4[C@@]5(C)CC[C@H](O)C(C)(C)[C@@H]5C[C@H](O)[C@@]4(C)[C@]3(C)CC[C@@]2(C(=O)O)C[C@@H]1O | > 40 µM |
| CC1(C)[C@@H](O)CC[C@]2(C)[C@H]3C(=O)C=C4[C@@H]5C[C@@](C)(C(=O)O)CC[C@]5(C)CC[C@@]4(C)[C@]3(C)CC[C@@H]12 [ENOXOLONE] | 0.89 µM |
| CC1(C)CC[C@]2(C(=O)O)CC[C@]3(C)C(=CC[C@@H]4[C@@]5(C)CC[C@H](O)C(C)(C)[C@@H]5CC[C@]43C)[C@@H]2C1 [OLEANOLIC_ACID] | 8.55 µM |
| OC[C@H]1O[C@@H](OCCc2ccc(O)cc2)[C@H](O)[C@@H](O)[C@@H]1O [SALIDROSIDE] | 0.21 µM |

— ChEMBL document CHEMBL4610052, “Application of tandem biotransformation for biosynthesis of new pentacyclic triterpenoid derivatives with neuroprotective effect” (Bioorg Med Chem Lett, 2020)
